Converted amounts (≈) assume the structure as drawn.
What was measured:
Assay in all cases: ≥ marks a high value that may be exact or a test limit, other limits are often not marked, values filed in µg/mL are converted to µM
[1] = tested on: Bacillus megaterium KCTC 1096
[2] = tested on: Bacillus subtilis KCTC 1918
[3] = tested on: Escherichia coli KCTC 1682
[4] = tested on: Proteus vulgaris
[5] = tested on: Pseudomonas aeruginosa KCTC 1637
[6] = tested on: Staphylococcus aureus KCTC 1621
[7] = tested on: Escherichia coli KF111
[8] = tested on: Escherichia coli KF130
[9] = tested on: Escherichia coli UB1005
[10] = tested on: Pseudomonas aeruginosa ATCC 27853
[11] = tested on: Pseudomonas aeruginosa H374
[12] = tested on: Pseudomonas aeruginosa H744
[13] = tested on: Pseudomonas aeruginosa K799
[14] = tested on: Salmonella enterica subsp. enterica serovar Typhimurium ATCC 14028s
[15] = tested on: Staphylococcus epidermidis
[16] = tested on: Escherichia coli ATCC 11219
[17] = tested on: Klebsiella pneumoniae ATCC 10031
[18] = tested on: Pseudomonas aeruginosa ATCC 13388
[19] = tested on: Salmonella enterica subsp. enterica serovar Typhimurium ATCC 14028
[20] = tested on: Staphylococcus aureus ATCC 6538

Row | SMILES | MIC [1] | MIC [2] | MIC [3] | MIC [4] | MIC [5] | MIC [6] | MIC [7] | MIC [8] | MIC [9] | MIC [10] | MIC [11] | MIC [12] | MIC [13] | MIC [14] | MIC [15] | MIC [16] | MIC [17] | MIC [18] | MIC [19] | MIC [20]
1 | CC[C@H](C)[C@H](NC(=O)[C@H](CCCCN)NC(=O)[C@H](CCCCN)NC(=O)[C@H](Cc1ccccc1)NC(=O)[C@H](CC(C)C)NC(=O)[C@H](CCCCN)NC(=O)[C@H](Cc1c[nH]c2ccccc12)NC(=O)[C@@H](N)CCCCN)C(=O)N[C@@H](CO)C(=O)N[C@@H](CCCCN)C(=O)N[C@@H](Cc1ccccc1)C(=O)N[C@@H](CC(C)C)C(=O)N[C@@H](Cc1cnc[nH]1)C(=O)N[C@@H](CC(C)C)C(=O)N[C@@H](C)C(=O)N[C@@H](CCCCN)C(=O)N[C@@H](CCCCN)C(=O)N[C@@H](Cc1ccccc1)C(N)=O [KWKLFKKISKFLHLAKKF] | 3.12 µM (≈ 7.16 µg/mL) | 1.56 µM (≈ 3.57 µg/mL) | 25 µM (≈ 57.2 µg/mL) | 6.25 µM (≈ 14.3 µg/mL) | 6.25 µM (≈ 14.3 µg/mL) | 6.25 µM (≈ 14.3 µg/mL) | – | – | – | – | – | – | – | – | – | – | – | – | – | –
2 | CC[C@H](C)[C@H](NC(=O)[C@@H]1CCCN1C(=O)[C@H](CCCCN)NC(=O)[C@H](CC(C)C)NC(=O)[C@H](C)NC(=O)[C@@H](NC(=O)[C@@H](NC(=O)[C@H](CC(C)C)NC(=O)[C@@H](NC(=O)[C@H](CCCCN)NC(=O)[C@H](CCCCN)NC(=O)[C@H](C)NC(=O)[C@H](C)NC(=O)[C@H](CO)NC(=O)[C@@H](NC(=O)[C@H](CC(C)C)NC(=O)[C@H](CCCCN)NC(=O)[C@H](CCCCN)NC(=O)[C@H](CC(C)C)NC(=O)[C@H](Cc1ccccc1)NC(=O)[C@H](CO)NC(=O)[C@H](CCCCN)NC(=O)[C@H](Cc1c[nH]c2ccccc12)NC(=O)[C@@H](N)CCCCN)[C@@H](C)O)C(C)C)[C@@H](C)O)[C@@H](C)O)C(=O)N[C@@H](CO)C(=O)N[C@@H](CO)C(=O)O [KWKSFLKKLTSAAKKVLTTALKPISS] | – | – | – | – | – | – | 0.348 µM (≈ 1 µg/mL) | 0.348 µM (≈ 1 µg/mL) | 0.348 µM (≈ 1 µg/mL) | 4 µM (≈ 11.5 µg/mL) | 1.39 µM (≈ 4 µg/mL) | 1.39 µM (≈ 4 µg/mL) | 2.78 µM (≈ 8 µg/mL) | 1.39 µM (≈ 4 µg/mL) | 1.39 µM (≈ 4 µg/mL) | – | – | – | – | –
3 | CC[C@H](C)[C@H](NC(=O)[C@@H]1CCCN1C(=O)[C@H](CCCCN)NC(=O)[C@H](CC(C)C)NC(=O)[C@H](C)NC(=O)[C@@H](NC(=O)[C@H](Cc1ccc(O)cc1)NC(=O)[C@H](Cc1ccccc1)NC(=O)[C@@H](NC(=O)[C@@H](NC(=O)[C@H](CCCCN)NC(=O)[C@@H](NC(=O)[C@@H]1CCCN1C(=O)[C@H](CO)NC(=O)[C@H](CCCCN)NC(=O)[C@H](Cc1ccccc1)NC(=O)[C@@H](NC(=O)[C@H](CCCCN)NC(=O)[C@H](CC(C)C)NC(=O)[C@H](Cc1ccccc1)NC(=O)[C@H](CO)NC(=O)[C@H](CCCCN)NC(=O)[C@H](Cc1c[nH]c2ccccc12)NC(=O)[C@@H](N)CCCCN)[C@@H](C)O)C(C)C)[C@@H](C)O)C(C)C)[C@@H](C)O)C(=O)N[C@@H](CO)C(=O)N[C@@H](CO)C(=O)O [KWKSFLKTFKSPVKTVFYTALKPISS] | – | – | – | – | – | – | 1.32 µM (≈ 4 µg/mL) | 1.32 µM (≈ 4 µg/mL) | 0.659 µM (≈ 2 µg/mL) | 8 µM (≈ 24.3 µg/mL) | 10.6 µM (≈ 32 µg/mL) | 10.6 µM (≈ 32 µg/mL) | 10.6 µM (≈ 32 µg/mL) | 5.28 µM (≈ 16 µg/mL) | 10.6 µM (≈ 32 µg/mL) | – | – | – | – | –
4 | CC[C@H](C)[C@H](NC(=O)CNC(=O)[C@@H](N)Cc1c[nH]c2ccccc12)C(=O)N[C@@H](CCCN=C(N)N)C(=O)N[C@@H](CC(=O)O)C(=O)N[C@H](C(=O)N[C@@H](CC(C)C)C(=O)N[C@@H](CCCCN)C(=O)N[C@@H](Cc1ccc(O)cc1)C(=O)NCC(=O)N[C@@H](CCCCN)C(=O)N1CCC[C@H]1C(=O)N[C@@H](CO)C(=O)O)[C@@H](C)CC [WGIRDILKYGKPS] | – | – | – | – | – | – | – | – | – | – | – | – | – | – | – | 15 µM (≈ 23 µg/mL) | 30 µM (≈ 46 µg/mL) | 5 µM (≈ 7.66 µg/mL) | 8 µM (≈ 12.3 µg/mL) | 15 µM (≈ 23 µg/mL)
